Consider five substances from patent US9833497B2, “Human originated EGF domain proteins and use of the same” (CHENGDU SOURCEBIO LIMITED-LIABILITY COMPANY, priority 2013, dated 2017).

Common to all, as to assay type: cell-based
For one assay, the system named is Aeromonas hydrophila. The assay can be described thus: MIC against Gram-negative bacteria: Aeromonas hydrophila. The following applies: 5×10^5 CFU/mL. Put shortly:
(§1)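 MIC, the lowest recombinant protein concentration giving no bacterial growth, found by two-fold serial dilution of human EGF-domain proteins in triplicate. Inoculum 5×10^5 CFU/mL in LB from cultures at McFarland 0.5; plates incubated at 37° C, 175 rpm shaking.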

Another assay concerns Pseudomonas aeruginosa. The assay can be described thus: MIC against Gram-negative bacteria: Pseudomonas aeruginosa. The following applies: 5×10^5 CFU/mL. In a few lines:
as §1

For the next assay, the system named is Proteus mirabilis. The assay can be described thus: MIC against Gram-negative bacteria: Proteus mirabilis. The following applies: 5×10^5 CFU/mL. In a few lines: as §1
In the next assay the test system is E. coli BL21. The assay can be described thus: MIC against Gram-negative bacteria: E. coli BL21. As to conditions: E. coli BL21, 5×10^5 CFU/mL. In a few lines: as §1
A further assay relates to Klebsiella pneumonia. The assay can be described thus: MIC against Gram-negative bacteria: Klebsiella pneumonia. As to conditions: 5×10^5 CFU/mL. Put shortly: as §1
The next assay concerns Citrobacter diversus. The assay can be described thus: MIC against Gram-negative bacteria: Citrobacter diversus. As to conditions: 5×10^5 CFU/mL. In a few lines:
as §1

For a further assay, the system named is Proteus vulgaris. The assay can be described thus: MIC against Gram-negative bacteria: Proteus vulgaris. The following applies: 5×10^5 CFU/mL. In a few lines: as §1
In the next assay the test system is Enterobacter cloacae. The assay can be described thus: MIC against Gram-negative bacteria: Enterobacter cloacae. As to conditions: 5×10^5 CFU/mL. In a few lines: as §1
Another assay deals with E. coli DH5α. The assay can be described thus: Antibacterial activity: MIC and growth curve against E. coli DH5α in 96-well plate. As to conditions: minimal inhibitory concentration against E. coli DH5α; 96-well plate, 5×10^5 CFU/mL, 37° C., judged after 8 h. Put shortly: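 MIC taken as lowest protein level with no bacterial growth, tracked by A600 every 30 min during 37 °C, 175 rpm culture. Two-fold protein series 50-12.5 μg/mL final, triplicate wells, against 5×10^5 CFU/mL of LB-washed mid-log cells.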

The next assay concerns Serratia marcescens. The assay can be described thus: MIC against Gram-negative bacteria: Serratia marcescens. The following applies: 5×10^5 CFU/mL. Put shortly: as §1
The test system of another assay is Moraxella catarrhalis. The assay can be described thus: MIC against Gram-negative bacteria: Moraxella catarrhalis. As to conditions: 5×10^5 CFU/mL. Put shortly: as §1
Setting [1] is: Aeromonas hydrophila, 10 h cultivation at 37° C.
Setting [2] is: Pseudomonas aeruginosa, 10 h cultivation at 37° C.
The mark [3] stands for this setting: Proteus mirabilis, 10 h cultivation at 37° C.
Setting [4] is: Klebsiella pneumonia, 10 h cultivation at 37° C.
Setting [5] is: Citrobacter diversus, 10 h cultivation at 37° C.
The mark [6] stands for this setting: Proteus vulgaris, 10 h cultivation at 37° C.
Setting [7] is: Enterobacter cloacae, 10 h cultivation at 37° C.
[8] abbreviates: Serratia marcescens, 10 h cultivation at 37° C.
The mark [9] stands for this setting: Moraxella catarrhalis, 10 h cultivation at 37° C.
Setting [10] is: Aeromonas hydrophila, 96-well plate, 37° C., 10 h.
The mark [11] stands for this setting: Pseudomonas aeruginosa, 96-well plate, 37° C., 10 h.
The mark [12] stands for this setting: Proteus mirabilis, 96-well plate, 37° C., 10 h.
[13] abbreviates: Klebsiella pneumonia, 96-well plate, 37° C., 10 h.
The mark [14] stands for this setting: Citrobacter diversus, 96-well plate, 37° C., 10 h.
Setting [15] is: Proteus vulgaris, 96-well plate, 37° C., 10 h.
[16] abbreviates: Enterobacter cloacae, 96-well plate, 37° C., 10 h.
Setting [17] is: Serratia marcescens, 96-well plate, 37° C., 10 h.
The mark [18] stands for this setting: Moraxella catarrhalis, 96-well plate, 37° C., 10 h.

By MIC is commonly meant the lowest concentration that inhibits growth of the organism. “PRT1387 (IMDDCSTNCNGNGECISGHCHCFPGFLGPDCA; listed as Homo sapiens)”: the “MIC against A. hydrophila” value in the assay on Aeromonas hydrophila (setting [1]) was 50 µg/mL. For the same substance, in the assay on Pseudomonas aeruginosa (setting [2]), the “MIC against P. aeruginosa” value came to 50 µg/mL. For the same substance, the “MIC against P. mirabilis” value in the assay on Proteus mirabilis (setting [3]) was 25 µg/mL. For the same substance, the “MIC against E. coli BL21” value in the assay with E. coli BL21 (10 h cultivation at 37° C.) was 12.5 µg/mL. Also, the “MIC against K. pneumonia” value against Klebsiella pneumonia (setting [4]) was 25 µg/mL. For the same substance, in the assay on Citrobacter diversus (setting [5]), the “MIC against C. diversus” value worked out at 25 µg/mL. In addition, in the assay on Proteus vulgaris (setting [6]), the “MIC against P. vulgaris” value came to 12.5 µg/mL. The “MIC against E. cloacae” value in the assay on Enterobacter cloacae (setting [7]) stood at 12.5 µg/mL. This substance came in with a minimum inhibitory concentration (MIC) in the assay on E. coli DH5α of 12.5 µg/mL. Besides, the “MIC against S. marcescens” value against Serratia marcescens (setting [8]) worked out at 25 µg/mL. Also, the “MIC against M. catarrhalis” value against Moraxella catarrhalis (setting [9]) turned out to be 12.5 µg/mL.
As to “PRT111 (DLDECASRSKSGEEDPQPQCQHLCHNYVGGYFCSCRPGYELQEDTHSCQ; listed as Homo sapiens)”, the “MIC (μg/mL) A. hydrophila” value with Aeromonas hydrophila (setting [10]) worked out at 25 µg/mL. Also, the “MIC (μg/mL) P. aeruginosa” value against Pseudomonas aeruginosa (setting [11]) amounted to 12.5 µg/mL. In the assay with Proteus mirabilis (setting [12]), the “MIC (μg/mL) P. mirabilis” value turned out to be 50 µg/mL. In addition, in the assay on E. coli BL21 (96-well plate, 37° C., 10 h), the “MIC (μg/mL) E. coli BL21” value was found to be 12.5 µg/mL. Besides, in the assay with Klebsiella pneumonia (setting [13]), the “MIC (μg/mL) K. pneumonia” value came out at 12.5 µg/mL. Moreover, in the assay with Citrobacter diversus (setting [14]), the “MIC (μg/mL) C. diversus” value worked out at 12.5 µg/mL. Also, the “MIC (μg/mL) P. vulgaris” value in the assay with Proteus vulgaris (setting [15]) was 25 µg/mL. Further, the “MIC (μg/mL) E. cloacae” value in the assay with Enterobacter cloacae (setting [16]) was found to be 50 µg/mL. Also, in the assay on E. coli DH5α, the MIC worked out at 12.5 µg/mL. Besides, the “MIC (μg/mL) S. marcescens” value against Serratia marcescens (setting [17]) came to 12.5 µg/mL. For the same substance, the “MIC (μg/mL) M. catarrhalis” value against Moraxella catarrhalis (setting [18]) was 25 µg/mL.
On to “PRT221 (YTECTDGYEWDPDSQHCRDVNECLTIPEACKGEMKCINHYGGYLCL; listed as Homo sapiens)”, for which the “MIC (μg/mL) A. hydrophila” value in the assay on Aeromonas hydrophila (A. hydrophila, 10 h cultivation at 37° C.) amounted to 50 µg/mL. Further, the “MIC (μg/mL) P. aeruginosa” value against Pseudomonas aeruginosa (P. aeruginosa, 10 h cultivation at 37° C.) came to 50 µg/mL. The “MIC (μg/mL) P. mirabilis” value with Proteus mirabilis (P. mirabilis, 10 h cultivation at 37° C.) was 25 µg/mL. Besides, in the assay on E. coli BL21 (10 h cultivation at 37° C.), the “MIC (μg/mL) E. coli BL21” value is 50 µg/mL. For the same substance, in the assay with Klebsiella pneumonia (K. pneumonia, 10 h cultivation at 37° C.), the “MIC (μg/mL) K. pneumonia” value turned out to be 12.5 µg/mL. Further, the “MIC (μg/mL) C. diversus” value in the assay with Citrobacter diversus (C. diversus, 10 h cultivation at 37° C.) is 25 µg/mL. Moreover, the “MIC (μg/mL) P. vulgaris” value in the assay with Proteus vulgaris (P. vulgaris, 10 h cultivation at 37° C.) turned out to be 50 µg/mL. Also, in the assay with Enterobacter cloacae (E. cloacae, 10 h cultivation at 37° C.), the “MIC (μg/mL) E. cloacae” value is 25 µg/mL. The substance also showed an MIC against E. coli DH5α of 12.5 µg/mL. In addition, the “MIC (μg/mL) S. marcescens” value against Serratia marcescens (S. marcescens, 10 h cultivation at 37° C.) was found to be 12.5 µg/mL. The “MIC (μg/mL) M. catarrhalis” value against Moraxella catarrhalis (M. catarrhalis, 10 h cultivation at 37° C.) was 12.5 µg/mL.
As to “PRT1201 (DIDECALRTHTCWNDSACINLAGGFDCLCPSGPSCS; listed as Homo sapiens)”, the “MIC against A. hydrophila” value in the assay on Aeromonas hydrophila (setting [10]) was 25 µg/mL. Also, the “MIC against P. aeruginosa” value with Pseudomonas aeruginosa (setting [11]) was determined as 12.5 µg/mL. For the same substance, the “MIC against P. mirabilis” value against Proteus mirabilis (setting [12]) was found to be 25 µg/mL. Also, in the assay with E. coli BL21 (96-well plate, 37° C., 10 h), the “MIC against E. coli BL21” value amounted to 50 µg/mL. Moreover, the “MIC against K. pneumonia” value against Klebsiella pneumonia (setting [13]) amounted to 25 µg/mL. For the same substance, the “MIC against C. diversus” value in the assay on Citrobacter diversus (setting [14]) came to 12.5 µg/mL. Besides, in the assay on Proteus vulgaris (setting [15]), the “MIC against P. vulgaris” value was determined as 12.5 µg/mL. Moreover, in the assay on Enterobacter cloacae (setting [16]), the “MIC against E. cloacae” value stood at 50 µg/mL. In addition, in the assay on E. coli DH5α, the MIC amounted to 12.5 µg/mL. In addition, the “MIC against S. marcescens” value in the assay on Serratia marcescens (setting [17]) turned out to be 25 µg/mL. The “MIC against M. catarrhalis” value against Moraxella catarrhalis (setting [18]) amounted to 50 µg/mL.
On to “PRT1410 (IEGCPGLCNSNGRCTLDQNGWHCVCQPGWRGAGCD; listed as Homo sapiens)”, for which the “MIC against A. hydrophila” value with Aeromonas hydrophila (setting [1]) amounted to 12.5 µg/mL. The “MIC against P. aeruginosa” value against Pseudomonas aeruginosa (setting [2]) stood at 25 µg/mL. For the same substance, the “MIC against P. mirabilis” value against Proteus mirabilis (setting [3]) is 50 µg/mL. The “MIC against E. coli BL21” value against E. coli BL21 (10 h cultivation at 37° C.) stood at 12.5 µg/mL. Also, the “MIC against K. pneumonia” value in the assay with Klebsiella pneumonia (setting [4]) came to 50 µg/mL. Moreover, the “MIC against C. diversus” value in the assay on Citrobacter diversus (setting [5]) was determined as 50 µg/mL. Also, the “MIC against P. vulgaris” value with Proteus vulgaris (setting [6]) turned out to be 12.5 µg/mL. The “MIC against E. cloacae” value with Enterobacter cloacae (setting [7]) turned out to be 25 µg/mL. In the assay with E. coli DH5α, this substance returned an MIC of 25 µg/mL. In addition, in the assay on Serratia marcescens (setting [8]), the “MIC against S. marcescens” value stood at 12.5 µg/mL. For the same substance, in the assay on Moraxella catarrhalis (setting [9]), the “MIC against M. catarrhalis” value worked out at 100 µg/mL.
